From patent US12516038B2, “Inhibitors of antigen presentation by HLA-DR” (Janssen Pharmaceutica NV, priority 2020, dated 2026)

Tests used:
HLA-DRB1*0401 = HLA-DRB1*0401 (Homo sapiens (Human), UniProt P01903+P01911, A100K/A169T/DEL228-266/F76Y/I96L/K127E/L162R/M171V/N62H/P40V/Q125Y/R42H/S133A/S149N/S66Y/V115G/V209L/W38E); experiment: HLA-DR4 HTRF assay; format: binding; settings: inhibition of loading of Alexa Fluor 647-labeled Cit-CII peptide onto HLA-DR4 (CLIP cleaved)
Text: (§1) The screening was made through two sets of HLA-DR/peptide-dependent assays: a peptide-dependent Homogeneous Time Resolved Fluorescence (HTRF) binding assay followed by an HLA-DR dependent, peptide-specific T cell functional assay (HLA-DR4-restricted peptide-specific T cell-based assay hybridoma assay). The HTRF binding assay was designed to measure the ability of the small molecule to inhibit the loading of a fluorescently labeled high-affinity peptide onto HLA-DR peptide binding groove. The peptide-specific T cell functional assay assesses T cell activation resulting from proper peptide presentation onto HLA-DR expressed on the surface of the antigen-presenting cells to the T cell and is used to screen compounds able to inhibit such HLA-DR/peptide-dependent T cell activation.
The HLA-DR4 HTRF assay is based on HTRF technology and designed to measure ability of compounds to prevent loading of high-affinity Alexa Fluor 647-labeled Citrullinated Collagen 111236-1249 peptide (named Cit-CII/AF647, aa1236-1249, LQYM-Cit-ADQAAGGLR; Alexa Fluor 647 dye commercially available from Invitrogen) onto HLA-DRB1*0401. The HTRF assay technology is based on the energy transfer between two fluorophores, a donor and an acceptor, when in close proximity. The HLA-DR4 protein construct was uniquely designed for this assay and has (i) the α and […] subunits fused to human Fc chains and (ii) the invariant chain-associated peptide (CLIP peptide, aa85-101), the universal moderate/low-affinity HLA-DR binder, attached to the beta chain through a HRV3C protease-cleavable linker.
Because of the low stability of peptide free HLA-DR4 heterodimer, the construct was purified and delivered with CLIP peptide attached to the N-terminal of the β chain. The HLA-DR4 heterodimer was pre-treated with 3 μL HRV3C protease (Novagen E71493-3) (˜2 U/μL) per mg of the cleavable protein to cleave CLIP peptide and incubated overnight (>16 hrs) at 4° C. This method yielded at least 80% cleavage and allowed the CLIP peptide to be potentially exchanged with the fluorescently labeled high affinity cit-CII1236-1249 peptide. A batch of […] protein with CLIP cleaved was prepared for multiple experiments and was stable for several months when stored at 4° C.
In this assay, anti-human Fc antibody labeled with Tb-Cryptate probe was used as the donor (commercially available from Cisbio—PAb Anti-human IgG-Tb Cryptate, Cat #61HFCTAB) and high affinity peptide Citrullinated CII (cit-CII) labeled with Alexa 647 fluorophore was utilized as the acceptor. Inhibitors of the exchange of the pre-cleaved CLIP peptide for the high affinity cit-CII1236-1249 peptide onto HLA-DRB1*04:01 caused a decrease in HTRF signal as measured by the ratio of the 665 nm/620 nm emitted signal. Screening compounds were robotically pre-dispensed (150 nL, Hummingbird, DigiLab/CyBio AG) onto black, round bottom, nontreated, 1536-well assay plates (Corning #3939), were incubated with 3 nM HLA-DR4 (with CLIP cleaved) plus 1 nM Human IgG-Tb (anti-Fc-Tb) Antibody for 45 min prior to addition of 40 nM Cit-CII peptide labeled with Alexa-647. The negative control was DMSO plus 1 nM Human IgG-Tb (anti-Fc-Tb) Antibody, incubated for 45 minutes before addition of 40 nM Cit-CII peptide labeled with Alexa-647. The positive control was DMSO plus 3 nM HLA-DR4 (with CLIP cleaved) plus 1 nM Human IgG-Tb (anti-Fc-Tb) Antibody with 40 nM Cit-CII peptide labeled with Alexa-647 added after a 45-minute incubation. Plates were centrifuged at 1000 rpm for 1 minute and then incubated at 37° C., at 90% relative humidity for 90 minutes. After incubation, plates were read on a spectrophotometer, the Pherastar FS (BMG Labtech), in HTRF mode. The HTRF ratio as well as percent inhibition was calculated. Curve fitting and IC50 calculation for dose response data was performed by Microsoft Excel, 3DX (Janssen proprietary software) or Graphpad Prism (Graphpad Software, San Diego, CA). […]

[1] = test system: HLA-DR4 restricted mouse T cell hybridoma line (DR4.CII.36.8) with HLA-DRB1*04:01-expressing Boleth cells; experiment: HLA-DR4-restricted peptide-specific T cell-based assay (hybridoma assay); settings: Mus musculus, T-cell, 6 h, inhibition of IL-2 production, CII259-273 peptide presented by Boleth cells
Text: as §1
HLA-DR4-Restricted Peptide-Specific T Cell-Based Assay (Hybridoma Assay)
The hybridoma assay was used to measure compound inhibition of TL-2 production from an HLA-DR4 restricted mouse T cell hybridoma line (DR4.CII.36.8) that was antigen-specific for collagen II259-273 (CII259-273) peptide when presented with an HLA-DR4 expressing Antigen Presenting Cell (APC) cell line (i.e., Boleth).
To the HLA-DRB1*04:01-expressing B cell line (Boleth cell line from International Histocompatibility Working Group (IHWG), ref #IHW09031) was presented the collagen II 259-273 peptide (CII259-273, GIAGFKGEQGPKGEP) to mouse T cell hybridoma (DR4.CII.36.8 T cell hybridoma; clone 36.8, expressing a CII259-273-specific, HLA-DRB1*04:01-restricted T cell receptor). Upon proper CII259-273 peptide presentation, the T cell hybridoma was activated and thus produced IL-2 cytokine, whose level in the cell culture supernatant was detected using mouse IL-2 AlphaLISA kit (Perkin Elmer, Cat: AL511F).
This assay was performed in a 384-well plate (polypropylene V-bottom Greiner bio-one, ref #784075) by: (i) pre-incubation of 20 μL of 1.25 million/mL Boleth cells (25,000 cells) resuspended in DMEM/1% fetal calf serum (FCS; Gibco, ref #16140-071) with 20 μL of 2.5× final concentration of compound of interest in DMEM/1% serum/0.75% DMSO at 37° C. for 1 hr in the incubator, then (ii) 10 μL of 5 million/mL (50,000 cells) DR4.CII.36.8 T cell hybridoma cells resuspended in DMEM/1% FCS was added and incubated for 6 h at 37° C. in the incubator. Supernatant was then collected and mouse IL-2 detected using AlphaLISA kit (ref #AL511F). Compounds were tested in duplicate, with 8-point titration. Mean±SD of AlphaLISA units at each compound concentration was used for compound IC50 calculation. The negative control for this experiment was run without peptide stimulation and used a DMSO vehicle wherein no compound of interest was added. The positive control was run with peptide stimulation and used a DMSO vehicle wherein no compound of interest was added. Both the negative and positive controls were run in 8 replicates each. Curve fitting and IC50 calculation for dose response data was performed by GraphPad software 6 or higher (GraphPad Software, San Diego, CA). Dose response data was plotted versus the log of compound concentration and IC50 was determined using 4-parameter logistic (4-PL) curve fitting.

## NC(=O)c1ccc([C@@H](Oc2ccc3c(c2)OCCC3=O)c2ccncc2)c2ccccc12 (single isomer, unassigned) [Example 98b, (*S)-4-(((4-oxochroman-7-yl)oxy)(pyridin-4-yl)methyl)-1-naphthamide]
HLA-DRB1*0401
  IC50: 10000 nM
[1]
  IC50: > 15 µM

## CC[C@@H]1CC(=O)c2ccc(O[C@H](c3ccncc3)c3ccc(C(N)=O)cc3)cc2O1 (single isomer, unassigned) [Example 41a, 4-((*S)—(((*R)-2-ethyl-4-oxochroman-7-yl)oxy)(pyridin-4-yl)methyl)benzamide]
HLA-DRB1*0401
  IC50: 1200 nM
[1]
  IC50: > 15 µM

## COc1ccc([C@H](Oc2c(F)cc3c(c2C)OCCC3=O)c2ccncc2)cc1 (single isomer, unassigned) [Example 103b, (*S)-6-fluoro-7-((4-methoxyphenyl)(pyridin-4-yl)methoxy)-8-methylchroman-4-one]
HLA-DRB1*0401
  IC50: 2800 nM
[1]
  IC50: 15 µM

## Cc1c(O[C@@H](c2ccncc2)c2cccc(S(C)(=O)=O)c2)c(F)cc2c1OCCC2=O (single isomer, unassigned) [Example 105b, (*S)-6-fluoro-8-methyl-7-((3-(methylsulfonyl)phenyl)(pyridin-4-yl)methoxy)chroman-4-one]
HLA-DRB1*0401
  IC50: 190 nM
[1]
  IC50: 6 µM

## Cc1c(O[C@@H](c2ccncc2)c2ccc(C(N)=O)c(F)c2)c(F)cc2c1OCCC2=O (single isomer, unassigned) [Example 95b, (*S)-2-fluoro-4-(((6-fluoro-8-methyl-4-oxochroman-7-yl)oxy)(pyridin-4-yl)methyl)benzamide]
HLA-DRB1*0401
  IC50: 220 nM
[1]
  IC50: 1.1 µM

## O=C1CCOc2cc(O[C@@H](c3ccncc3)c3cccc(O)c3)ccc21 (single isomer, unassigned) [Example 5b, (*S)-7-((3-Hydroxyphenyl)(pyridin-4-yl)methoxy)chroman-4-one]
HLA-DRB1*0401
  IC50: 14000 nM
[1]
  IC50: 5.2 µM

## CC(C)c1c(O[C@@H](c2ccc(C(N)=O)cc2)c2cccc(C#N)c2)ccc2c1OCCC2=O (single isomer, unassigned) [Example 107b, (*S)-4-((3-cyanophenyl)((8-isopropyl-4-oxochroman-7-yl)oxy)methyl)benzamide]
HLA-DRB1*0401
  IC50: 1100 nM
[1]
  IC50: 2.3 µM

## Cc1c(O[C@@H](c2ccccc2)c2ccc(C(N)=O)cc2)ccc2c1OCCC2=O (single isomer, unassigned) [Example 69b, (*S)-4-(((8-Methyl-4-oxochroman-7-yl)oxy)(phenyl)methyl)benzamide]
HLA-DRB1*0401
  IC50: 2100 nM
[1]
  IC50: > 15 µM

## Cc1c(O[C@@H](c2ccc(C(N)=O)cc2)c2ccc(S(C)(=O)=O)cc2)c(F)cc2c1OCCC2=O (single isomer, unassigned) [Example 93b, (*S)-4-(((6-fluoro-8-methyl-4-oxochroman-7-yl)oxy)(4-(methylsulfonyl)phenyl)methyl)benzamide]
HLA-DRB1*0401
  IC50: 280 nM
[1]
  IC50: 14 µM

## Cc1cc([C@@H](Oc2ccc3c(c2C)OC(C)(C)CC3=O)c2ccc(C(N)=O)cc2)cc(C)n1 (single isomer, unassigned) [Example 112b, (*S)-4-((2,6-dimethylpyridin-4-yl)((2,2,8-trimethyl-4-oxochroman-7-yl)oxy)methyl)benzamide]
HLA-DRB1*0401
  IC50: 600 nM
[1]
  IC50: 4 µM

## Cc1c(O[C@H](c2ccncc2)c2ccc(C(N)=O)c(F)c2)c(F)cc2c1OCCC2=O (single isomer, unassigned) [Example 95a, (*R)-2-fluoro-4-(((6-fluoro-8-methyl-4-oxochroman-7-yl)oxy)(pyridin-4-yl)methyl)benzamide]
HLA-DRB1*0401
  IC50: 220 nM
[1]
  IC50: 0.23 µM

## NC(=O)c1ccc([C@@H](Oc2ccc3c(c2)OCCC3=O)c2ccnc(N)c2)cc1 (single isomer, unassigned) [Example 28a, (*R)-4-((2-aminopyridin-4-yl)((4-oxochroman-7-yl)oxy)methyl)benzamide]
HLA-DRB1*0401
  IC50: 1800 nM
[1]
  IC50: 6.9 µM

## Cc1cc2c(c(C)c1O[C@H](c1ccc(F)cc1)c1ccc(C(N)=O)cc1)OCCC2=O (single isomer, unassigned) [Example 90b, (*S)-4-(((6,8-dimethyl-4-oxochroman-7-yl)oxy)(4-fluorophenyl)methyl)benzamide]
HLA-DRB1*0401
  IC50: 590 nM
[1]
  IC50: 7.4 µM

## Cc1c(O[C@@H](c2ccc(C(N)=O)cc2)c2ccc(F)c(F)c2)c(F)cc2c1OCCC2=O (single isomer, unassigned) [Example 91b, (*S)-4-((3,4-difluorophenyl)((6-fluoro-8-methyl-4-oxochroman-7-yl)oxy)methyl)benzamide]
HLA-DRB1*0401
  IC50: 350 nM
[1]
  IC50: > 15 µM

## NC(=O)c1ccc([C@@H](Oc2ccc3c(c2)OCCC3=O)c2ccncc2N)cc1 (single isomer, unassigned) [Example 27a, (*R)-4-((3-aminopyridin-4-yl)((4-oxochroman-7-yl)oxy)methyl)benzamide]
HLA-DRB1*0401
  IC50: 7300 nM
[1]
  IC50: 13 µM

## CCCc1c(O[C@H](c2ccncc2)c2ccc(C(N)=O)cc2)ccc2c1OCCC2=O (single isomer, unassigned) [Example 80b, (*S)-4-(((4-Oxo-8-propylchroman-7-yl)oxy)(pyridin-4-yl)methyl)benzamide]
HLA-DRB1*0401
  IC50: 960 nM

## Cc1cc([C@@H](Oc2ccc3c(c2)OCCC3=O)c2ccc(C(N)=O)cc2)ccn1 (single isomer, unassigned) [Example 15b, (*S)-4-((2-Methylpyridin-4-yl)((4-oxochroman-7-yl)oxy)methyl)benzamide]
HLA-DRB1*0401
  IC50: 770 nM
[1]
  IC50: 8.1 µM
